These results are taken from patent US20220017863A1, “SIRT2-ABLATED CHIMERIC T CELLS” (H. Lee Moffitt Cancer Center and Research Institute, Inc., priority 2019, published 2022).

The structures appear in SMILES notation. Entries after “also recorded” stand apart in the source; their conditions may differ.

The test system of one experiment is Pmel T cells. The experiment can be described thus: IFN-γ ELISPOT on gp100-stimulated Pmel T cells. The note with it: gp100-stimulated Sirt2KO (Sirt2−/−) Pmel T cells. In kind it is cell-based, mouse. The protocol: Spleens and/or Lymph nodes (LN) were collected from WT, Sirt2KO, Pmel/WT, Pmel/Sirt2KO mice and processed into single-cell suspensions. CD3^+, CD4^+ and CD8^+ T cells were negatively enriched using Mouse Pan T cell, CD4^+ T cell and CD8^+ T cell isolation Kits™ respectively according to the manufacturers' instructions. The purity of the isolated cells was confirmed by flow cytometry (>95%). Purified T cells were cultured in completed RPMI 1640 medium (ThermoFisher Scientific) supplemented with 10% (vol/vol) Fetal bovine serum (FBS, Biowest) and 1% (vol/vol) penicillin/streptomycin (P/S, Thomas Scientific Inc). […]
The number of IFN-γ producing cells was evaluated in an ELISPOT assay. […] After washing steps and biotinylated anti-IFN-γ antibody (R4-6A2, ThermoFisher Scientific)+Streptavidin-HRP (BD Bioscience) labeling, spots were detected using AEC Substrate Kit (BD Biosciences) and counted using an AID ELISPOT Reader System (Autoimmun Diagnostika GmbH). […]
The number of IFN-γ producing cells was evaluated in an ELISPOT assay. […] After washing steps and successive biotinylated anti-IFN-γ antibody (R4-6A2, Mabtech, Inc.) and Streptavidin-HRP (BD Bioscience) labeling, spots were detected using AEC Substrate Kit (BD Biosciences) and counted using an AID ELISPOT Reader System (Autoimmun Diagnostika GmbH).

Experiment [1] has as its system CD3-stimulated CD3+ splenic T cells. The experiment can be described thus: Seahorse OCR of activated CD3+ splenic T cells with mitochondrial fuel pathway inhibitors. As to conditions: for maximal respiration: activated Sirt2−/− CD3+ T cells; for maximal respiration (in response of FCCP): activated WT CD3+ T cells. It is filed as cell-based, mouse. The protocol:
Extracellular acidification rate (ECAR) and oxygen consumption rate (OCR) were measured using the Seahorse XF analyzer (Agilent technologies). Glycolysis Stress Test (GST), glycolytic rate assay (GRA) and mitochondrial stress test (MST) were purchased from Agilent technologies and performed according to the kit manufacturer's instructions.
The day of the assay, 2×10^5 activated T cells were plated in Cell-Tak (Corning)-coated XF96 plates in XF media (XF RPMI Medium pH 7.4 containing 2 mM L-glutamine only for GST or supplemented with 10 mM glucose, 2 mM L-glutamine and 1 mM sodium pyruvate for GRA and MST, all from Agilent technologies) via centrifugation to ensure cell attachment. Cells were equilibrated for 1 hr in a non-CO2 incubator before starting the assay.
(§1) To measure the contribution of glycolysis, glutaminolysis and FAO as fuels for mitochondrial metabolism, OCR and ECAR were measured under basal conditions and in response to sequential injections of vehicle, UK5099 (2 μM), BPTES (3 μM) or Etomoxir (4 μM) inhibitors and then 1 μM oligomycin, 1 μM FCCP (Carbonyl cyanide 4-trifluoromethoxyphenylhydrazone) and 0.5 μM rotenone/antimycin A.

For experiment [2], the system named is TILs from B16F10 tumor nodules. The experiment can be described thus: Seahorse OCR of TILs freshly isolated from B16F10 tumor nodules with Etomoxir. It is filed as cell-based, mouse. The protocol: Lymphocytes from subcutaneous tumors were isolated by dicing the tissues followed by enzymatic digestion in PBS containing collagenase type 4 (2 mg/ml, Worthington Biochemical) and DNase I (0.25 mg/ml, Sigma-Aldrich) for 45 min with occasional shaking at 37° C. Cell suspensions were then twice filtered through 100 μm and 40 μm cell strainers (Thermo Fisher Scientific) to obtain single-cell suspension followed by a PBS wash and red blood cell lysis using RBC Lysis Buffer (Biolegend). TILs were finally isolated by density gradient centrifugation using Percoll (GE Healthcare) and were further purified using CD3c MicroBeads Kit™ (Miltenyi Biotec) according to the manufacturer's instructions. T cell purity was greater than 90%. Fresh TILs were used directly for phenotypic and metabolic analyses or were cultured in complete RPMI medium for functional assays.
as §1

For experiment [3], the system named is human CD3+ T cells. The experiment can be described thus: Seahorse extracellular flux analysis of CD3-stimulated human CD3+ T cells from healthy donors. The note with it: anti-CD3 plus inhibitor vs vehicle, 48 hr. It is filed as cell-based. The protocol: (§2) Human peripheral blood mononuclear cells (PBMC) were obtained from healthy donors by density gradient centrifugation using Ficoll-Paque™ PLUS Media (GE Healthcare). CD3^+ lymphocytes were negatively enriched using human Pan T cell isolation Kit™ (Miltenyi Biotec).
Extracellular acidification rates (ECAR) were measured using the Seahorse XF analyzer (Agilent). Glycolysis Stress Test (GST) and glycolytic rate assay (GRA) were performed according to kit manufacturer's instructions.
The day of the assay, 2×10^5 activated T cells were plated in Cell-Tak (Corning)-coated XF96 plates in XF media (XF RPMI Medium pH 7.4 containing 2 mM L-glutamine only for GST or supplemented with 10 mM glucose, 2 mM L-glutamine and 1 mM sodium pyruvate for GRA test, all from Agilent technologies) via centrifugation to ensure cell attachment. Cells were equilibrated for 1 hour in a non-CO2 incubator before starting the assay.
For GST, ECAR was measured under basal conditions and in response to 10 mM glucose, 1 μM oligomycin and 50 mM 2-DG successively to calculate basal glycolytic rate, glycolytic capacity (in response to oligomycin), and glycolytic reserve (glycolytic capacity−basal rate). For GRA, ECAR was measured under basal conditions and in response to 0.5 μM rotenone+0.5 μM antimycin A and 50 mM 2-DG successively to calculate basal glycolysis and compensatory glycolysis (in response to rotenone+antimycin A). Results were normalized to total protein quantified using Pierce™ BCA Protein Assay Kit (ThermoFisher Scientific).
Human peripheral blood mononuclear cells (PBMC) were obtained from healthy donors by density gradient centrifugation using Ficoll-Paque™ PLUS Media (GE Healthcare). CD3^+ lymphocytes were negatively enriched using human Pan T cell isolation Kit™ (Miltenyi Biotec). […].
Extracellular acidification rate (ECAR) and oxygen consumption rate (OCR) were measured using the Seahorse XF analyzer (Agilent technologies). Glycolysis Stress Test (GST), glycolytic rate assay (GRA) and mitochondrial stress test (MST) were purchased from Agilent technologies and performed according to the kit manufacturer's instructions. […]
For GST, ECAR and OCR were measured under basal conditions and in response to 10 mM glucose, 1 μM oligomycin and 50 mM 2-DG successively to calculate basal glycolytic rate, glycolytic capacity (in response to oligomycin), and glycolytic reserve (glycolytic capacity basal rate).
For GRA, ECAR and OCR were measured under basal conditions and in response to 0.5 μM roteone/antimycin A and 50 mM 2-DG successively to calculate basal glycolysis and compensatory glycolysis (in response to rotenone/antimycin A).

Experiment [4] relates to human CD3+ T cells. The experiment can be described thus: IFN-γ ELISPOT on human CD3+ T cells from healthy donors. In kind it is cell-based. The note with it: inhibitor vs vehicle, 48 hr, listed as TM.
In experiment [5] the target is T1, Sirt2 deacetylase activity (Homo sapiens, UniProt Q8IXJ6).
T1 construct: endogenous in cells; host or cells: human CD3+ T cells enriched from PBMC of healthy donors
T1 sequence (Q8IXJ6 1-389): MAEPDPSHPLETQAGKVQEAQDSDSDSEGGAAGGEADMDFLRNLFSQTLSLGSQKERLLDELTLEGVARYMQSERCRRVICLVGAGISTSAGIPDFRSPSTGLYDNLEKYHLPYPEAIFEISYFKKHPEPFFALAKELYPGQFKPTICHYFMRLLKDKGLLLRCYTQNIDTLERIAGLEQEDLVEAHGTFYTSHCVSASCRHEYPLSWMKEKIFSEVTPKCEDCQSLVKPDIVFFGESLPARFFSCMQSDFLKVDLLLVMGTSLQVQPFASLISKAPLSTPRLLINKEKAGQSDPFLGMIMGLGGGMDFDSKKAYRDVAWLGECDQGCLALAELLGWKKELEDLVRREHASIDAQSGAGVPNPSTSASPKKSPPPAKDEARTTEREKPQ
The experiment can be described thus: Western blot of acetylated α-tubulin in human CD3+ enriched T cells. It is filed as cell-based. The note with it: 48 hr, listed as TM. How it is done: as §2
Whole cell lysates were prepared using lysis buffer (Pierce RIPA buffer, ThermoFisher Scientific) supplemented with cOmplete™ Protease Inhibitor Cocktail and PhosSTOP Phosphatase Inhibitor (Roche Applied Science).
Cell lysates (20 ug) or IP samples were loaded onto 10% SDS-PAGE and separated by electrophoresis followed by semi-dry transfer into polyvinylidene fluoride membranes (Immun-Blot PVDF membrane, Bio-Rad) using Trans-Blot Turbo transfer system (Bio-Rad). After transfer, the membranes were blocked at room temperature with Tris-buffered saline (TBS) containing 0.05% Tween-20 (TBST) and 5% (w/v) milk for 1 h and then incubated overnight at 4° C. with a specific primary antibody (indicated below). […] After washing 3 times with TBST, bound antibodies were detected by chemiluminescence using the Pierce™ ECL Western Blotting Substrate and the Super Signal West Femto Maximum Sensitivity Substrate kits (ThermoFisher Scientific). […]
(In general: A western blot detects proteins with antibodies after separation by electrophoresis.)

In the case of `CC[C@H]1/C=C/C=C/C[C@@H](C)[C@H](O)[C@@](C)(O)C(=O)[C@@H](C)[C@H](O)[C@@H](C)C(=O)[C@@H](C)[C@H](O)[C@@H](C)/C=C/C(=O)O[C@@H]2[C@H](C)[C@H](CC1)O[C@]1(CC[C@H](C)[C@H](C[C@@H](C)O)O1)[C@H]2C` [oligomycin], in the experiment with Pmel T cells, the IFN-γ release result is recorded as “suppressed”.
Consider `N#C/C(=C\c1cn(-c2ccccc2)c2ccccc12)C(=O)O` [UK5099], for which, in experiment [1], the maximal respiration result was “insensitive” and the “maximal respiration (in response of FCCP)” value is “significantly suppressed”.
With `CCOC(=O)[C@@]1(CCCCCCOc2ccc(Cl)cc2)CO1` [Etomoxir], the results for the maximal respiration entry in experiment [1], in experiment [2] (Sirt2−/− TILs) and in experiment [2] (WT TILs) were “insensitive”, “remained resistant” and “decreases”, respectively. The “maximal respiration (in response of FCCP)” value in experiment [1] is recorded as “significantly suppressed”.
`CCCCCCCCCCCCCC(=S)NCCCC[C@H](NC(=O)OCc1ccccc1)C(=O)Nc1ccccc1` [Thiomyristoyl]: in the experiment on human CD3+ T cells [3], the OxPhos result is given as “increased”. For the same molecule, in the experiment with human CD3+ T cells [3] (listed as TM), the “aerobic glycolysis (ECAR/PER)” value is given as “increased; also recorded: augments”. The “IFN-γ production (effector function)” value with human CD3+ T cells [4] is “increased; also recorded: augments”. Moreover, in experiment [5], the “capacity to block Sirt2 deacetylase activity, monitored by acetylated α-tubulin levels” value is “confirmed; also recorded: validated”.
Take `O=C(Cc1ccccc1)Nc1nnc(CCSCCc2nnc(NC(=O)Cc3ccccc3)s2)s1` [BPTES]: in experiment [1], the maximal respiration result was “insensitive” and the “maximal respiration (in response of FCCP)” value is on record as “significantly suppressed”.
